Laboratory results as given in US20260199231A1, “FLUTICASONE AND VILANTEROL FORMULATION AND INHALER” (KINDEVA DRUG DELIVERY L.P., priority 2018, published 2026).

Columns and labels:
[1] = Delivered dose study (start of unit life, unit spray collection apparatus, HPLC assay); assay type: physicochemical; settings: Example 1 MDI: 0.1744% fluticasone furoate, 0.0698% vilanterol trifenatate, 99.7558% HFA-152a; coated 63 microliter valve; 28.3 L/min
Protocol: The start of unit life delivered dose was determined using standard unit spray collection apparatus (USCA) fitted with a filter. For each determination, an MDI was attached to the USCA using a coupler and actuated a single time. Immediately prior to attachment, the MDI was vigorously shaken. Prior to collection of the test sample, the MDI was primed by actuating four times. Prior to each priming shot the MDI was vigorously shaken. The flow rate through the equipment was regulated to 28.3 L/min+/−0.5 L/min. The test sample deposited in the USCA was collected by rinsing with a known volume of collection solvent. The recovered samples were then analyzed for sample content using an HPLC assay with reference to a known standard. An HPLC instrument with a UV detector (220 nm at 0 minutes, 240 nm at 5 minutes) and a symmetry shield RP18, 150 mm×4.6 mm (3.5 μm) column (temperature 25° C.) was used. The mobile phase was 10 mM SDS (sodium dodecyl sulphate), 60:40 (v/v) acetetonitrile:50 mM NH4OAc (ammonium acetate), pH 5.50. The injection volume was 50 μl and the flow rate was 1.0 mL/min.

[2] = Next Generation Impactor (NGI) studies, aerodynamic particle size distribution emitted from MDI; assay type: physicochemical; settings: HFA-152a; for FPM (fine particle mass, particle size less than 5 micrometers, per actuation) / ISM (impactor sized mass, Cups 2-7, MOC and filter, per actuation) / MMAD (mass median aerodynamic diameter) / Throat hold up (throat assembly content divided by total ex-actuator content): Example 1 MDI: 0.1744% FF, 0.0698% vilanterol trifenatate, mean of three MDIs; for FPM (fine particle mass, particle size less than 5 micrometers, per actuation) / ISM (impactor sized mass, Cups 2-7, MOC and filter, per actuation) / MMAD (mass median aerodynamic diameter): 30 L/minute; for Throat hold up (throat assembly content divided by total ex-actuator content): Emmace anatomical throat
Protocol: The aerodynamic particle size distribution emitted from each MDI was evaluated using a Next Generation Impactor Instrument (MSP Corporation, Shoreview, MN). For each test, an MDI was attached to the throat component (Emmace anatomical throat, Emmace Consulting, Lund, Sweden) of the NGI instrument and actuated 6 times into the instrument. Prior to each actuation the MDI was vigorously shaken. Immediately prior to attachment, the MDI was primed by actuating 4 times. Prior to each priming shot the MDI was vigorously shaken. The flow rate through the instrument during testing was regulated at 30 L/minute. The test sample (fluticasone furoate and vilanterol trifenatate) deposited on the valve stem, actuator, throat assembly (Emmace anatomical throat), individual uncoated collection cups 1-7, micro-orifice collector (MOC), and final filter component was collected by rinsing each individual component with a known volume of collection solvent. The recovered samples were then analyzed for sample content using an HPLC assay with reference to a known standard. An HPLC instrument with a UV detector (220 nm at 0 minutes, 240 nm at 5 minutes) and a symmetry shield RP-18, 4.6-150 mm column (25° C. column temp) was used. The mobile phase was 10 mM SDS, 60:40 (v/v) acetonitrile:50 mM NH4OAc, pH 5.5). The injection volume was 50 microliters and the flow rate was 1.0 mL/min.
Throat hold up was determined as the ratio of the sample content from the throat assembly divided by the total ex-actuator content.
Fine particle mass (FPM) was calculated using CITDAS (Copley Inhaler Testing Data Analysis Software, from Copley Scientific, Nottingham, UK) as the sum of sample content with a particle size less than 5 micrometers (um), reported as micrograms per actuation (mcg/act).
Median mass aerodynamic diameter (MMAD) was calculated using CITDAS (Copley Inhaler Testing Data Analysis Software).
Impactor sized mass (ISM) was determined as the sum of the sample content determined for Cups 2-7, the MOC and the filter, reported as micrograms per actuation (mcg/act).

[3] = Example 2 MDI: 0.8791 wt. % fluticasone furoate, 0.1758 wt. % vilanterol trifenatate, coated 25 microliter valve
[4] = Example 3 MDI: 0.4396 wt. % fluticasone furoate, 0.0879 wt. % vilanterol trifenatate, 50 microliter valve
[5] = Example 4 MDI: 0.3489 wt. % fluticasone furoate, 0.0698 wt. % vilanterol trifenatate, 63 microliter valve
[6] = Example 5 MDI: 0.2198 wt. % fluticasone furoate, 0.0440 wt. % vilanterol trifenatate, uncoated 100 microliter valve
[7] = Example 6 MDI: 0.4396 wt. % fluticasone furoate, 0.1758 wt. % vilanterol trifenatate, coated 25 microliter valve
[8] = Example 7 MDI: 0.2198 wt. % fluticasone furoate, 0.0879 wt. % vilanterol trifenatate, 50 microliter valve
[9] = Example 8 MDI: 0.1744 wt. % fluticasone furoate, 0.0698 wt. % vilanterol trifenatate, 63 microliter valve
[10] = Example 9 MDI: 0.1099 wt. % fluticasone furoate, 0.0440 wt. % vilanterol trifenatate, uncoated 100 microliter valve

Start of life dose content uniformity (delivered dose) [1]	FPM (fine particle mass, particle size less than 5 micrometers, per actuation) ([2]; 63 microliter valve)	ISM (impactor sized mass, Cups 2-7, MOC and filter, per actuation) ([2]; 63 microliter valve)	MMAD (mass median aerodynamic diameter) ([2]; 63 microliter valve)	Throat hold up (throat assembly content divided by total ex-actuator content) ([2]; 63 microliter valve)	calculated FPM [2, 3]	calculated MMAD [2, 3]	calculated FPM [2, 4]	calculated MMAD [2, 4]	calculated FPM [2, 5]	calculated MMAD [2, 5]	calculated FPM [2, 6]	calculated MMAD [2, 6]	calculated FPM [2, 7]	calculated MMAD [2, 7]	calculated FPM [2, 8]	calculated MMAD [2, 8]	calculated FPM [2, 9]	calculated MMAD [2, 9]	calculated FPM [2, 10]	Structure (SMILES)	also measured
90.9 mcg/actuation	21.6 µg	29.7 µg	3.3 um	70.8%	104.9 micrograms/actuation	3.5 micrometers	69.3 micrograms/actuation	3.4 micrometers	55.9 micrograms/actuation	3.3 micrometers	45.2 micrograms/actuation	3.3 micrometers	41.0 micrograms/actuation	3.1 micrometers	26.3 micrograms/actuation	2.9 micrometers	23.8 micrograms/actuation	3.0 micrometers	19.3 micrograms/actuation	C[C@@H]1C[C@H]2[C@@H]3C[C@H](F)C4=CC(=O)C=C[C@]4(C)[C@@]3(F)[C@@H](O)C[C@]2(C)[C@@]1(OC(=O)c1ccco1)C(=O)SCF [FF, fluticasone furoate]	calculated MMAD [2, 10]: 3.2 micrometers
23.1 mcg/actuation	9.2 µg	10.1 µg	1.9 um	61.4%	13.6 micrograms/actuation	2.6 micrometers	8.8 micrograms/actuation	2.7 micrometers	6.7 micrograms/actuation	2.3 micrometers	5.5 micrograms/actuation	2.5 micrometers	11.4 micrograms/actuation	2.1 micrometers	7.7 micrograms/actuation	2.2 micrometers	5.9 micrograms/actuation	2.3 micrometers	4.2 micrograms/actuation	OCc1cc([C@@H](O)CNCCCCCCOCCOCc2c(Cl)cccc2Cl)ccc1O [V, vilanterol]	calculated MMAD [2, 10]: 2.6 micrometers
